Measurements from PubChem BioAssay AID2061108 (Research group of Professor Matthew Todd, School of …, 2025).
Activity calls are given as the source filed them. No rule for the calls is given here.

Assays:
Experiment in all cases: antibacterial and antifungal growth inhibition panel, profiling panel, Idler compounds, first plate, PMBN-permeabilized strains (AID 2061108)
Design in all cases: haemolysis: dose or concentration left out as unconfirmed
[1] = system: E. coli NCTC 12923 + PMBN growth inhibition, 100 uM; conditions: S. aureus ATCC 9144 growth inhibition; measured here: E. coli plus PMBN; at 100 µM; stronger effect = higher value
[2] = system: A. baumannii ATCC 17978 growth inhibition, 100 uM; conditions: S. aureus ATCC 9144 growth inhibition; measured here: A. baumannii ATCC 17978; at 100 µM; stronger effect = higher value
[3] = system: C. albicans NCPF 3281 growth inhibition, 100 uM; conditions: S. aureus ATCC 9144 growth inhibition; measured here: C. albicans NCPF 3281; at 100 µM; stronger effect = higher value
[4] = system: E. coli NCTC 12923 growth inhibition, 100 uM; conditions: E. coli NCTC 12923 growth inhibition, 100 µM; stronger effect = higher value
[5] = system: A. baumannii ATCC 17978 + PMBN growth inhibition, 100 uM; conditions: A. baumannii plus PMBN growth inhibition, 100 µM; stronger effect = higher value
[6] = system: M. avium growth inhibition, 10 uM; conditions: M. avium growth inhibition, 10 µM
[7] = system: S. aureus ATCC 9144 growth inhibition, 100 uM; conditions: S. aureus ATCC 9144 growth inhibition; at 100 µM; stronger effect = higher value
[8] = system: red blood cell haemolysis; conditions: stronger effect = higher value; dose or concentration not given here
[9] = system: M. abscessus growth inhibition, 10 uM; conditions: S. aureus ATCC 9144 growth inhibition; measured here: M. abscessus; at 10 µM

| Structure (SMILES) | inhibition [1] [%] | inhibition [2] [%] | inhibition [3] [%] | inhibition [4] [%] | inhibition [5] [%] | inhibition [6] [%] | inhibition [7] | haemolysis [8] [%] | inhibition [9] [%] |
| --- | --- | --- | --- | --- | --- | --- | --- | --- | --- |
| Cc1ccn2c(=O)nc(SCC(=O)OCc3ccccc3)nc2c1 | -29.4 | 0.238 | -102 | -34.5 | 5.22 | -0.191 | 7% (inactive) | -0.0134 | -0.803 |
| N#Cc1cc(-c2cccc(Cl)c2)no1 | 1.71 | -0.723 | -135 | -0.811 | 26.6 | 0.349 | 15.6% (inactive) | 6.05 | 0.0599 |
| NC(=O)C1CCN(c2nc(OCc3ccc(F)nc3)nc(N3CCCOCC3)n2)CC1 | -2.07 | -0.843 | -78.3 | -2.97 | 9.86 | 0.922 | 18.4% (inactive) | 1.34 | -0.107 |
| O=S(=O)(c1ccc2nncn2c1)N(Cc1cccc(F)c1)c1ccc2c(c1)OCCO2 | -20.9 | -2.17 | -82.4 | -55.8 | 11.3 | -0.711 | -8.6% (inactive) | 8.17 | -0.196 |
| COc1cc2nc(N3CCC(N(C)C)C3)nc(N3CCN(C(=O)OC(C)(C)C)CC3)c2cc1OC (configuration not stated) | 10.1 | -7.35 | -73.8 | 2.57 | 29.6 | 3.78 | 7.89% (inactive) | 0.172 | -0.0588 |
| NC(=O)CSc1nnc(COc2ccccc2)n1-c1ccccc1 | 2.8 | 0.843 | -39.3 | -3.24 | 23.4 | 0.364 | 15.3% (inactive) | 0.123 | 0.484 |
| O=C(Nc1ccccc1)C(Cl)C(=O)c1ccccc1 (configuration not stated) | 61.4 | 37.9 | 101 | 20.3 | 98.6 | 1.66 | 100% | -0.111 | -1.14 |
| CC(C)c1conc1CNc1ccnc(S(=O)(=O)F)c1 | -0.37 | -0.119 | 11.6 | -1.22 | 13 | 0.196 | 16.8% (inactive) | -0.292 | -1.22 |
| C=CC(=O)N1CCC[C@H](CC(=O)O)C1 | 5.85 | 0 | -64.4 | -6.76 | 22.4 | 0.225 | 14.4% (inactive) | -0.0261 | -0.00311 |
| N#Cc1c(NC[C@H]2CCCN2)nc2ccccc2c1C(F)(F)F | 17.7 | 9.76 | -78.9 | 12.8 | 53.6 | -0.31 | 99.7% | 0.41 | -1.13 |
| COc1cc2nc(Nc3cc(C)[nH]n3)nc(NC3CCN(C(=O)OC(C)(C)C)CC3)c2cc1OC | 78.8 | 48.6 | -108 | 14.5 | 70.4 | 3.94 | 99.8% | 2.1 | 0.14 |
| COc1cc2nc(Nc3cc(C)[nH]n3)nc(N3CC(N(C)C)C3)c2cc1OC | -10.1 | 3.33 | 13.3 | 5.14 | 17.5 | 1.81 | 33% (inactive) | 0.198 | -0.369 |
| COc1ccc(Nc2nc(-c3ccoc3)cs2)c(C)c1 | -20.1 | -13.9 | -127 | -15 | 16.4 | 0.988 | -12.5% (inactive) | 0.164 | -1.05 |
| O=C(Nc1ccc(OC2CCCCC2)cc1)c1ccc(-c2nn[nH]n2)cc1 | 6.17 | -15.8 | 6.07 | 1.08 | 17.1 | -0.389 | 7.17% (inactive) | 0.0779 | -1.07 |
| O=C(N/N=C/c1ccncc1O)c1ccncc1 | 1.36 | 12.6 | 79.2 | 18.6 | 22.8 | -1.89 | 22% (inactive) | -0.102 | -0.377 |
| O=C(N/N=C/c1cnc(C(F)(F)F)nc1)c1ccncc1 | 11.2 | 10.4 | 17 | -2.16 | 21.6 | 1.52 | 16.7% (inactive) | 0.15 | 0.125 |
| O=S(=O)(Nc1ccc(Oc2ccccc2)cc1)c1ccc(-c2nn[nH]n2)cc1 | 21.7 | -18.3 | -30.5 | 0.135 | 34.1 | 0.208 | 70% (inactive) | 1.69 | -0.359 |
| Cn1nc(NC(=O)Nc2ccc(Cl)cc2)cc1C(C)(C)C | -30.4 | -22 | -94 | -25 | -3 | 0.567 | -14.7% (inactive) | 0.275 | -0.422 |
| Cc1ncsc1CCCN(C)c1cnc(S(=O)(=O)F)c(Br)c1 | 0.37 | -2.86 | -94.3 | 1.49 | 21.9 | 0.0507 | 16.7% (inactive) | 0.616 | -0.937 |
| O=C(Nc1cccc(C(F)(F)F)c1)C(Cl)C(=O)c1ccccc1 (configuration not stated) | 100 | 46.6 | 101 | 34.5 | 99.6 | 1.13 | 101% | 0.0983 | 0.0425 |
| Nc1ncnc2cc(-c3cccc(S(=O)(=O)NC(=O)C(N)CC(=O)O)c3)sc12 (configuration not stated) | 8.15 | -7.14 | -64.6 | 0.676 | 9.86 | 11.9 | 15.7% (inactive) | -0.194 | -1.16 |
| CC(N)C(=O)NS(=O)(=O)c1cccc(-c2cc3ncnc(N)c3s2)c1 (configuration not stated) | -31.8 | -14.5 | -29.6 | -32.4 | -25.6 | 45.2 | -35.4% (inactive) | 0.129 | -0.285 |
| COc1ccc(-c2nc(N3CCC(N(C)C)C3)c3cc(OC)c(OC)cc3n2)cc1 (configuration not stated) | -11 | -3.73 | 2.3 | 6.35 | 39.9 | 3.41 | 10.4% (inactive) | 0.312 | 0.735 |
| CC(Nc1ccc2oc(=O)[nH]c2c1)C(=O)Nc1ccccc1C#N (configuration not stated) | -6.79 | -0.833 | 28 | -4.73 | 14.5 | 0.0692 | 8.83% (inactive) | 0.275 | -1.22 |
| O=C(Nc1ccc(-c2nn[nH]n2)cc1)c1ccc(Oc2ccccc2)cc1 | 17.2 | -0.833 | -19.7 | 0.27 | 16.4 | -1.24 | 16.2% (inactive) | -0.191 | -0.941 |
| CCOc1ccc2ncc(C#N)c(N3CCC(C(=O)NCc4ccccc4F)CC3)c2c1 | -24 | -5.66 | -38.3 | -44.6 | 1 | -1.25 | -21.2% (inactive) | 0.211 | -0.367 |
| O=S(=O)(F)c1ncc(Cl)cc1Br | -23.7 | 0.595 | -41.4 | -27.7 | 5.94 | 0.219 | -14.2% (inactive) | 0.564 | -0.925 |
| O=C(N1CCCCC1)N1CCCCC1Cc1ccccc1 (configuration not stated) | 18.1 | -2.26 | -79.6 | -3.65 | 16.8 | 0.89 | 7% (inactive) | -0.191 | -0.54 |
